Experimental findings from patent publication US12441726B2, “Compounds and uses thereof” (Foghorn Therapeutics Inc., priority 2020, dated 2025) are described below.

One assay deals with BRG-1 (Homo sapiens, UniProt P51532). As to the kind of experiment: ATPase catalytic activity assay (ADP-Glo), BRG-1. The note with it: for Emax: 1 h, read-out: BRG1 Max % Inhibition, ADP-Glo, 30 nM BRG-1, 400 μM ATP. (ADP-Glo first removes unused ATP, then detects ADP through luciferase.)
Another assay concerns the target BRM (Homo sapiens, UniProt P51531). Kind of assay: ATPase catalytic activity assay (ADP-Glo), BRM. The note with it: 30 nM BRM, 400 μM ATP; for IC50: BRM ATPase: IC50 (uM).

Sequence of BRG-1 (P51532 whole entry): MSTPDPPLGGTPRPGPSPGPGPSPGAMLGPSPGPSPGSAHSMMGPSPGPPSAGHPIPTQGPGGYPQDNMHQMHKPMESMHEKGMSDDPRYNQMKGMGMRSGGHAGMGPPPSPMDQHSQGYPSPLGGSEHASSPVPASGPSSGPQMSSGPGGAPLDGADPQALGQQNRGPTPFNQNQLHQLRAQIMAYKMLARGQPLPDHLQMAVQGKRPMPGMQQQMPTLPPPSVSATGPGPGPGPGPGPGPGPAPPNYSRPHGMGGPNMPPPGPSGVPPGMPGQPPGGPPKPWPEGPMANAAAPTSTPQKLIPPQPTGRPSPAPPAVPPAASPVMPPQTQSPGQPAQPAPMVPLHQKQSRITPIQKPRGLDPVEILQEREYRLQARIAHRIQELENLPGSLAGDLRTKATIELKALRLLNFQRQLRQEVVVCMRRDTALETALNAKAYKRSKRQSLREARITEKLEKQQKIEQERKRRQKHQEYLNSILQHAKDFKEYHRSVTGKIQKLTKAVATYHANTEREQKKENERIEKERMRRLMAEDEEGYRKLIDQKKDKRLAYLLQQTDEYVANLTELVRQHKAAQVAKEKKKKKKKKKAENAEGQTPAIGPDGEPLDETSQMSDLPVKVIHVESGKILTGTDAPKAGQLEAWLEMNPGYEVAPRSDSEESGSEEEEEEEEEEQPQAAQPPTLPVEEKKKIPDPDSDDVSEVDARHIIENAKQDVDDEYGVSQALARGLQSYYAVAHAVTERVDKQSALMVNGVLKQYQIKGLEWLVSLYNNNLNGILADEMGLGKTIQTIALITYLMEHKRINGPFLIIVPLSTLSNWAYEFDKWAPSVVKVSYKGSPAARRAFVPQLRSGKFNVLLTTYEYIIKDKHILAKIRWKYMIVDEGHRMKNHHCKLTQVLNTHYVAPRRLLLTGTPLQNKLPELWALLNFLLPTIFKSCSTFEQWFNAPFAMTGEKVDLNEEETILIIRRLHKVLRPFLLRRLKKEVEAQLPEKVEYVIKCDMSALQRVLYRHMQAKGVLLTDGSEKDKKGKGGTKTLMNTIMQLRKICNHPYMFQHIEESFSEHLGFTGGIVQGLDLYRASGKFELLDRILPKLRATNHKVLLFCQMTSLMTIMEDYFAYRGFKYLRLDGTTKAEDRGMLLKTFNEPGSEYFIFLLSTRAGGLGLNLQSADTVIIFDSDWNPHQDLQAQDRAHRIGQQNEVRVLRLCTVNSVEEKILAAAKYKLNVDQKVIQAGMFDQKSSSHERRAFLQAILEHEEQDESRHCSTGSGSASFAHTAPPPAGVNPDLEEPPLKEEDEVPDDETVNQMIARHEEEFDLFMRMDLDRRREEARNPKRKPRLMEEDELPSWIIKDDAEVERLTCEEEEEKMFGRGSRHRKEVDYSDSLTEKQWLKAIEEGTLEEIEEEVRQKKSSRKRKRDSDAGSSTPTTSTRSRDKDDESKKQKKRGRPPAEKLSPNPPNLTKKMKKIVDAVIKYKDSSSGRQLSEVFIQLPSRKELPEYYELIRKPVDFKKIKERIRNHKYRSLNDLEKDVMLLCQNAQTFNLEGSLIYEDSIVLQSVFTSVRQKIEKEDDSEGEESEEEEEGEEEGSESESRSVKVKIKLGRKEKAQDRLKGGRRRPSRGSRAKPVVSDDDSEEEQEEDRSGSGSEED
Sequence of BRM (P51531 whole entry): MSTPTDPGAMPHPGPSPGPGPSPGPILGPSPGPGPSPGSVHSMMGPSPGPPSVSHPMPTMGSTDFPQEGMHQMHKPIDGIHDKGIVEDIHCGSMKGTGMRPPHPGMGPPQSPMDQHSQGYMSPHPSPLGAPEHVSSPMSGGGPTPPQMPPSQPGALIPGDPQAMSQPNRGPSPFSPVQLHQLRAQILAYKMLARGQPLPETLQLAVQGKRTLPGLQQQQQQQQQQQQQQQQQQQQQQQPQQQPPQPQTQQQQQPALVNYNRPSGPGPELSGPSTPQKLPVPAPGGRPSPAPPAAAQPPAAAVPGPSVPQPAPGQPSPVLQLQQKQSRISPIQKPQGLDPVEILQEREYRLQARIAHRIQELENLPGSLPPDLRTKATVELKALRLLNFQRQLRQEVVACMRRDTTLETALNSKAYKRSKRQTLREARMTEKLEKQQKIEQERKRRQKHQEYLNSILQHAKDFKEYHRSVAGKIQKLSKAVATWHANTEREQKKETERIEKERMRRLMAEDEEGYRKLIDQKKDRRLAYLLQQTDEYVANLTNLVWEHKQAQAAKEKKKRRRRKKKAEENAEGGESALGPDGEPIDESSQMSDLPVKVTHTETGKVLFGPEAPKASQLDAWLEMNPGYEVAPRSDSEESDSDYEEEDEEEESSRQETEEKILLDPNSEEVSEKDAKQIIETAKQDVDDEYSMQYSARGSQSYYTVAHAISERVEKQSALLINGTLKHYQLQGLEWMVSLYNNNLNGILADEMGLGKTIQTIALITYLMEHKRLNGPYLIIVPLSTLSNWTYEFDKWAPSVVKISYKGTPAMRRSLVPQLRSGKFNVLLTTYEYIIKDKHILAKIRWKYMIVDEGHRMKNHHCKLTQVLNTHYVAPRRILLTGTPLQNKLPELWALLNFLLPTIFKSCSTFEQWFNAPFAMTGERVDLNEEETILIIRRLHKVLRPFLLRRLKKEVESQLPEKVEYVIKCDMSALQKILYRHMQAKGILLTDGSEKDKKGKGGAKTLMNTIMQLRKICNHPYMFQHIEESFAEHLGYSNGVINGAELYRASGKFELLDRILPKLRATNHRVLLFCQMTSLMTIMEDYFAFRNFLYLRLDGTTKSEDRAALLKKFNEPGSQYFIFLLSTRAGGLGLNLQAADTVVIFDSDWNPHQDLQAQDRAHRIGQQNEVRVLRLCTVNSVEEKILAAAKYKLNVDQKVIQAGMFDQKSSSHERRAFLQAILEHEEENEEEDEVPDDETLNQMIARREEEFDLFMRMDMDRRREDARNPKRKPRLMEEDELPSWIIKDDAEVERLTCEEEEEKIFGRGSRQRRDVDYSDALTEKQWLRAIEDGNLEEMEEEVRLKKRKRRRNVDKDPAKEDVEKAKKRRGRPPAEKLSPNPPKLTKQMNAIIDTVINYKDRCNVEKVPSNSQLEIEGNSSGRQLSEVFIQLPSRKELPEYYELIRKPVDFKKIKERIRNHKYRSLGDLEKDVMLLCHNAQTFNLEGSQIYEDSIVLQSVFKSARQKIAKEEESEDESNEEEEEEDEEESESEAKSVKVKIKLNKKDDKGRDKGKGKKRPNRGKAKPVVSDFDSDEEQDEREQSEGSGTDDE

For orientation: IC50 means the point on the concentration scale where inhibition reaches its midpoint. A higher IC50 goes with weaker potency in that assay. As for `CN(C)c1cncc(-c2ccc3cnc(CNC(=O)c4ccc5c(c4)[C@](C)(C#N)COC5)cc3n2)n1` [Compound 407], on BRG-1, the IC50 was 100 to 500 nM and the Emax amounted to 97%. At BRM, the “BRM Max % Inhibition” value turned out to be 99% and the concentration for half-maximal inhibition (IC50) was < 0.1 µM.
With `C[C@@]1(F)COCc2ccc(C(=O)NCc3cc4nc(-c5ccccc5)ccc4cn3)cc21` [Compound 86], on BRG-1, the IC50 is > 1000 nM and the Emax came out at 62%. Also, on BRM, the “BRM Max % Inhibition” value worked out at 96% and the IC50 was in the range of 0.1 to 0.5 µM.
`CN1Cc2ccc(-c3ccc4cnc(CNC(=O)c5ccc6c(c5)[C@](C)(C#N)COC6)cc4n3)cc2C1=O` [Compound 485]: at BRG-1, the IC50 lay in the range of 500 to 1000 nM and the Emax turned out to be 82%. On BRM, the “BRM Max % Inhibition” value was found to be 93% and the IC50 is 0.1 to 0.5 µM.
Taken in the same sequence, the figures for `C[C@@]1(C#N)COCc2ccc(C(=O)NCc3cc4nc(-c5cccc(C(F)F)n5)ccc4cn3)cc21` [Compound 469] were 100 to 500 nM, 85%, 98% and < 0.1 µM.
Taken in the same sequence, the figures for `Cn1ccc2ccc(-c3ccc4cnc(CNC(=O)c5ccc6c(c5)[C@](C)(C#N)COC6)cc4n3)nc2c1=O` [Compound 196] were > 1000 nM, 59%, 86% and 0.1 to 0.5 µM.
Taken in the same sequence, the figures for `C[C@@]1(C#N)COCc2ccc(C(=O)NCc3cc4nc(-c5cccc(C#N)c5)ccc4cn3)cc21` [Compound 112] were > 1000 nM, 55%, 94% and 0.1 to 0.5 µM.
Regarding `C[C@@]1(C#N)COCc2ccc(C(=O)NCc3cc4nc(-c5cccc(N6CCC6)c5)ccc4cn3)cc21` [Compound 126], on BRG-1, the IC50 is > 1000 nM and the Emax was 51%. Besides, on BRM, the “BRM Max % Inhibition” value stood at 95% and the IC50 was 0.1 to 0.5 µM.
Consider `Cc1cc(-c2ccc3cnc(CNC(=O)c4ccc5c(c4)[C@](C)(C#N)COC5)cc3n2)on1` [Compound 231], for which, at BRG-1, the IC50 was > 1000 nM and the Emax is 46%. Further, at BRM, the “BRM Max % Inhibition” value was found to be 91% and the IC50 was in the range of 0.1 to 0.5 µM.
Take `CC(C)(O)c1cccc(-c2ccc3cnc(CNC(=O)c4ccc5c(c4)[C@](C)(C#N)COC5)cc3n2)n1` [Compound 410]: at BRG-1, the IC50 fell in the range of 500 to 1000 nM and the Emax was 75%. On BRM, the “BRM Max % Inhibition” value is on record as 93% and the concentration for half-maximal inhibition (IC50) fell in the range of 0.1 to 0.5 µM.
Taken in the same sequence, the figures for `COc1cc(-c2ccc3cnc(CNC(=O)c4ccc5c(c4)[C@](C)(C#N)COC5)cc3n2)ccn1` [Compound 512] were 500 to 1000 nM, 80%, 97% and < 0.1 µM.
Taken in the same sequence, the figures for `CN(C)c1cccc(-c2ccc3nnc(CNC(=O)c4ccc5c(c4)[C@](C)(F)COC5)cc3n2)n1` [Compound 238] were < 100 nM, 96%, 100% and < 0.1 µM.
Taken in the same sequence, the figures for `C[C@@]1(C#N)COCc2ccc(C(=O)NCc3cc4cc(-c5cncc(N6CCC6)n5)ccc4cn3)cc21` [Compound 371] were < 100 nM, 97%, 104% and < 0.1 µM.
`C[C@@]1(C#N)COCc2ccc(C(=O)NCc3cc4cc(N5CCn6ncc(C(F)F)c6C5)ccc4nn3)cc21` [Compound 219]: at BRG-1, the IC50 lay in the range of 500 to 1000 nM and the Emax worked out at 57%. At BRM, the “BRM Max % Inhibition” value was found to be 94% and the IC50 was in the range of 0.1 to 0.5 µM.
Taken in the same sequence, the figures for `C[C@@]1(C#N)COCc2c(F)cc(C(=O)NCc3cc4nc(-c5cncc(N6CCC6)n5)ccc4cn3)cc21` [Compound 399] were 100 to 500 nM, 98%, 100% and < 0.1 µM.
Taken in the same sequence, the figures for `C[C@@]1(C#N)COCc2ncc(C(=O)NCc3cc4nc(-c5cccc(C6CC6)c5)ccc4nn3)cc21` [Compound 198] were 500 to 1000 nM, 76%, 94% and 0.1 to 0.5 µM.
For the compound `COc1cccc([C@H]2C[C@@H](c3ccnc(CNC(=O)c4ccc5c(c4)[C@](C)(C#N)COC5)c3)C2)c1` [Compound 71], at BRG-1, the IC50 is > 1000 nM and the Emax was determined as 42%. On BRM, the “BRM Max % Inhibition” value was found to be 89% and the IC50 was in the range of 0.1 to 0.5 µM.
Taken in the same sequence, the figures for `C[C@@]1(F)COCc2ccc(C(=O)NCc3cc4nc(-c5ccnc(C6CC6)n5)cnc4cn3)cc21` [Compound 191] were 500 to 1000 nM, 76%, 97% and < 0.1 µM.
Regarding `C[C@@]1(C#N)COCc2ccc(C(=O)NCc3cc(C4CCN(c5cccc(C(F)F)n5)C4)ccn3)cc21` (some centres unmarked) [Compound 69], at BRG-1, the IC50 lay within 500 to 1000 nM and the Emax was 50%. Moreover, at BRM, the “BRM Max % Inhibition” value was found to be 90% and the IC50 is 0.1 to 0.5 µM.
Taken in the same sequence, the figures for `C[C@@]1(C#N)COCc2ccc(C(=O)NCc3cc(OCc4ccc(C#N)cc4)ccn3)cc21` [Compound 64] were > 1000 nM, 36%, 87% and 0.1 to 0.5 µM.
Taken in the same sequence, the figures for `O=C(NCc1cc2nc(-c3cncc(C4CC4)n3)ccc2cn1)c1cnc2c(c1)[C@](F)(C(F)F)COC2` [Compound 228] were 100 to 500 nM, 98%, 100% and < 0.1 µM.
Taken in the same sequence, the figures for `C[C@@]1(C#N)COCc2ccc(C(=O)NCc3cc([C@H]4C[C@@H](c5cccc(C6CC6)n5)C4)ccn3)cc21` [Compound 78] were 500 to 1000 nM, 79%, 96% and < 0.1 µM.
On to `C[C@@]1(C#N)COCc2ccc(C(=O)NCc3cc4nc(-c5cnn(-c6cccnc6)c5)ccc4cn3)cc21` [Compound 499], for which, at BRG-1, the half-inhibitory concentration (IC50) is > 1000 nM and the Emax is 29%. Further, at BRM, the “BRM Max % Inhibition” value is 85% and the IC50 lay within 0.1 to 0.5 µM.
Taken in the same sequence, the figures for `C[C@@]1(C#N)COCc2ccc(C(=O)NCc3cc([C@H]4C[C@H](c5cccc(C6CC6)n5)C4)ccn3)cc21` [Compound 77] were 500 to 1000 nM, 102%, 99% and 0.1 to 0.5 µM.
Regarding `C[C@@]1(C#N)COCc2ccc(C(=O)NCc3cc4nc(-c5cc(F)cc(F)c5)ccc4cn3)cc21` [Compound 518], on BRG-1, the IC50 is 500 to 1000 nM and the Emax turned out to be 72%. In addition, on BRM, the “BRM Max % Inhibition” value is recorded as 96% and the IC50 lay in the range of 0.1 to 0.5 µM.
Taken in the same sequence, the figures for `C[C@@]1(C#N)COCc2ccc(C(=O)NCc3cc4c(cn3)CCN(c3cccc(N5CCC5)n3)C4)cc21` [Compound 402] were 500 to 1000 nM, 74%, 96% and < 0.1 µM.
Taken in the same sequence, the figures for `Cn1cc(F)c2c(-c3ccc4cnc(CNC(=O)c5ccc6c(c5)[C@](C)(C#N)COC6)cc4n3)cccc21` [Compound 138] were 100 to 500 nM, 94%, 101% and < 0.1 µM.
Taken in the same sequence, the figures for `COC(=O)c1cccc(C#Cc2ccnc(CNC(=O)c3ccc4c(c3)[C@](C)(C#N)CCN4)c2)c1` [Compound 39] were > 1000 nM, 28%, 75% and > 1 µM.
Take `O=C(NCc1cc2nc(-c3cncc(N4CCC4)n3)ccc2cn1)c1cc(F)c2c(c1)[C@](F)(C(F)F)COC2` [Compound 375]: at BRG-1, the IC50 was < 100 nM and the Emax came out at 101%. Further, at BRM, the “BRM Max % Inhibition” value is given as 100% and the IC50 is < 0.1 µM.
Regarding `C[C@@]1(C#N)COCc2ccc(C(=O)NCc3cc4nc(-c5ccncc5)sc4cn3)cc21` [Compound 438], at BRG-1, the concentration for half-maximal inhibition (IC50) is > 1000 nM and the Emax is 28%. Moreover, on BRM, the “BRM Max % Inhibition” value was determined as 84% and the IC50 is 0.1 to 0.5 µM.
As for `C[C@@]1(C#N)COCc2ccc(C(=O)NCc3cc4nc(-c5cccnc5)sc4cn3)cc21` [Compound 439], on BRG-1, the IC50 is > 1000 nM and the Emax worked out at 36%. Besides, on BRM, the “BRM Max % Inhibition” value is on record as 88% and the half-maximal inhibitory concentration (IC50) is 0.1 to 0.5 µM.
Taken in the same sequence, the figures for `C[C@@]1(C#N)COCc2ccc(C(=O)NCc3cc(N4CCC[C@H](c5ccccc5)C4)ccn3)cc21` [Compound 55] were > 1000 nM, 33%, 82% and 0.1 to 0.5 µM.
Taken in the same sequence, the figures for `C[C@@]1(C#N)COCc2ccc(C(=O)NCc3cc4nc(-c5ccc6ccc(=O)n(C7CC7)c6n5)ccc4cn3)cc21` [Compound 165] were 100 to 500 nM, 80%, 97% and < 0.1 µM.
Taken in the same sequence, the figures for `C[C@@]1(C#N)COCc2ccc(C(=O)NCc3ncc4ccc(-c5cncc(C6CC6)n5)nc4c3F)cc21` [Compound 130] were 100 to 500 nM, 90%, 97% and < 0.1 µM.
For `C[C@@]1(C#N)COCc2ccc(C(=O)NCc3cc(N4Cc5ccccc5C4)ccn3)cc21` [Compound 31], on BRG-1, the IC50 is > 1000 nM and the Emax amounted to 73%. Besides, on BRM, the “BRM Max % Inhibition” value is 96% and the IC50 was in the range of 0.1 to 0.5 µM.
Taken in the same sequence, the figures for `C[C@@]1(C#N)COCc2ccc(C(=O)NCc3cc(N4CCc5ccccc5C4)ccn3)cc21` [Compound 28] were 500 to 1000 nM, 86%, 98% and < 0.1 µM.
